According to patent US20140155376A1, “PYRROLOPYRAZINE KINASE INHIBITORS” (Hoffmann-La Roche Inc., priority 2010, published 2014):

Biological target: T1, JAK3 (recombinant human kinase domain; h-jak3(810-1124)) (Homo sapiens, UniProt P52333)
T1 construct: h-jak3(810- 1124)-sf9-c; made in house; host or cells: Sf9 insect cells
Assay: Determination of IC50 of Janus Kinase (JAK) inhibition: JAK3, radioactive end-point assay with 33P-ATP
Format: biochemical
Details: JAK3 kinase domain; ATP 1.5 uM, peptide 50 uM, 20 minutes, room temperature, 10% DMSO; read-out: Ic50 h-jak3(810-1124)-sf9-c:no additive

T1 sequence (P52333 810-1124): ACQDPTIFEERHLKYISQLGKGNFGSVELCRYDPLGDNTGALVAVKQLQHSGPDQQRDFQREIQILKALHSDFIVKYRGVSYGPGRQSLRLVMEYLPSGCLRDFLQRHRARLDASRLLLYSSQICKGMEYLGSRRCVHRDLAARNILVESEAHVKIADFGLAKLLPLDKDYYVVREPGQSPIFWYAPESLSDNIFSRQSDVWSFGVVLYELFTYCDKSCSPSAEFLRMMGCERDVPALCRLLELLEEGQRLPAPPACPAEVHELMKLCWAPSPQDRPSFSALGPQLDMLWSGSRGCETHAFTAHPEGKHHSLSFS

| SMILES | IC50 [nM] |
| --- | --- |
| CCNC(=O)c1c[nH]c2ncc(Oc3ccc4c(c3)[C@H](NC(C)=O)CC4)nc12 [Example I-271, 2-((R)-3-Acetylamino-indan-5-yloxy)-5H-pyrrolo[2,3-b]pyrazine-7-carboxylic acid ethylamide] | 1270 |
| C[C@H](NC(=O)c1c[nH]c2ncc(-c3ccc(C(=O)NC4CCOCC4)s3)nc12)C(C)(C)C [Example I-225, 2-[5-(Tetrahydro-pyran-4-ylcarbamoyl)-thiophen-2-yl]-5H-pyrrolo[2,3-b]pyrazine-7-carboxylic acid ((S)-1,2,2-trimethyl-propyl)-amide] | 0.19 |
| CC(C)[C@H](NC(=O)c1c[nH]c2ncc(C3CC3)nc12)C(C)(C)O [Example I-24, 2-Cyclopropyl-5H-pyrrolo[2,3-b]pyrazine-7-carboxylic acid ((S)-2-hydroxy-1-isopropyl-2-methyl-propyl)-amide] | 180 |
| C[C@H](NC(=O)c1c[nH]c2ncc(C3CC3)nc12)[C@](C)(O)CC1CC1 [Example I-48, 2-Cyclopropyl-5H-pyrrolo[2,3-b]pyrazine-7-carboxylic acid ((1S,2R)-3-cyclopropyl-2-hydroxy-1,2-dimethyl-propyl)-amide] | 116 |
| CC(C)NC(=O)c1c[nH]c2ncc(Oc3ccc4c(c3)[C@H](NC(=O)C(C)(C)C)CC4)nc12 [Example I-285, 2-[(R)-3-(2,2-Dimethyl-propionylamino)-indan-5-yloxy]-5H-pyrrolo[2,3-b]pyrazine-7-carboxylic acid isopropylamide] | 234 |
| COCC(C)(C)CNC(=O)c1c[nH]c2ncc(C3CC3)nc12 [Example I-59, 2-Cyclopropyl-5H-pyrrolo[2,3-b]pyrazine-7-carboxylic acid (3-methoxy-2,2-dimethyl-propyl)-amide] | 58.9 |
| CC[C@H](CO)NC(=O)c1c[nH]c2ncc(C3CC3)nc12 [Example I-58, 2-Cyclopropyl-5H-pyrrolo[2,3-b]pyrazine-7-carboxylic acid ((R)-1-hydroxymethyl-propyl)-amide] | 37.7 |
| C[C@H](NC(=O)c1c[nH]c2ncc(-c3ccc(C(N)=O)s3)nc12)C(C)(C)C [Example I-215, 2-(5-Carbamoyl-thiophen-2-yl)-5H-pyrrolo[2,3-b]pyrazine-7-carboxylic acid ((S)-1,2,2-trimethyl-propyl)-amide] | 0.21 |
| CC(C)(C)[C@@H](CC#N)NC(=O)c1c[nH]c2ncc(C3CC3)nc12 [Example I-76, 2-Cyclopropyl-5H-pyrrolo[2,3-b]pyrazine-7-carboxylic acid ((R)-1-cyanomethyl-2,2-dimethyl-propyl)-amide] | 132 |
| CCNC(=O)c1c[nH]c2ncc(Oc3cccc4[nH]ccc34)nc12 [Example I-275, 2-(1H-Indol-4-yloxy)-5H-pyrrolo[2,3-b]pyrazine-7-carboxylic acid ethylamide] | 626 |
| C[C@H](CO)NC(=O)c1c[nH]c2ncc(C3CC3)nc12 [Example I-41, 2-Cyclopropyl-5H-pyrrolo[2,3-b]pyrazine-7-carboxylic acid ((R)-2-hydroxy-1-methyl-ethyl)-amide] | 112 |
| C[C@@H](NC(=O)c1c[nH]c2ncc(-c3nccs3)nc12)C(C)(C)O [Example I-111, 2-Thiazol-2-yl-5H-pyrrolo[2,3-b]pyrazine-7-carboxylic acid ((R)-2-hydroxy-1,2-dimethyl-propyl)-amide] | 276 |
| C[C@H](NC(=O)c1c[nH]c2ncc(-c3ccc(C(=O)NCc4ccccn4)s3)nc12)C(C)(C)C [Example I-166, 2-{5-[(Pyridin-2-ylmethyl)-carbamoyl]-thiophen-2-yl}-5H-pyrrolo[2,3-b]pyrazine-7-carboxylic acid ((S)-1,2,2-trimethyl-propyl)-amide] | 0.11 |
| O=C(NCC1CCCCC1)c1c[nH]c2ncc(C3CC3)nc12 [Example I-107, 2-Cyclopropyl-5H-pyrrolo[2,3-b]pyrazine-7-carboxylic acid cyclohexylmethyl-amide] | 61.3 |
| CC(C)NC(=O)c1c[nH]c2ncc(Oc3ccc(F)cc3F)nc12 [Example I-132, 2-(2,4-Difluoro-phenoxy)-5H-pyrrolo[2,3-b]pyrazine-7-carboxylic acid isopropylamide] | 415 |
| CCC(NC(=O)c1c[nH]c2ncc(C3CC3)nc12)C1CCCCC1 (centres unmarked) [Example I-75, 2-Cyclopropyl-5H-pyrrolo[2,3-b]pyrazine-7-carboxylic acid (1-cyclohexyl-propyl)-amide] | 68.7 |
| CC(O)CC(C)(C)NC(=O)c1c[nH]c2ncc(C3CC3)nc12 (centres unmarked) [Example I-12, 2-Cyclopropyl-5H-pyrrolo[2,3-b]pyrazine-7-carboxylic acid (3-hydroxy-1,1-dimethyl-butyl)-amide] | 192 |
| CC(C)NC(=O)c1c[nH]c2ncc(Oc3cccc(OC(F)(F)F)c3)nc12 [Example I-230, 2-(3-Trifluoromethoxy-phenoxy)-5H-pyrrolo[2,3-b]pyrazine-7-carboxylic acid isopropylamide] | 2610 |
| CC(C)NC(=O)c1c[nH]c2ncc(Oc3cccc4c3CCCC4)nc12 [Example I-239, 2-(5,6,7,8-Tetrahydro-naphthalen-1-yloxy)-5H-pyrrolo[2,3-b]pyrazine-7-carboxylic acid isopropylamide] | 5200 |
| CC(C)[C@@H](C)NC(=O)c1c[nH]c2ncc(Oc3ccc(F)cc3F)nc12 [Example I-127, 2-(2,4-Difluoro-phenoxy)-5H-pyrrolo[2,3-b]pyrazine-7-carboxylic acid ((R)-1,2-dimethyl-propyl)-amide] | 143 |
| C[C@H](NC(=O)c1c[nH]c2ncc(-c3ccc(C(=O)NCc4ccncc4)s3)nc12)C(C)(C)C [Example I-165, 2-{5-[(Pyridin-4-ylmethyl)-carbamoyl]-thiophen-2-yl}-5H-pyrrolo[2,3-b]pyrazine-7-carboxylic acid ((S)-1,2,2-trimethyl-propyl)-amide] | 0.17 |
| C[C@H](NC(=O)c1c[nH]c2ncc(-c3ccc(C(=O)NCc4ccc(F)cc4)s3)nc12)C(C)(C)C [Example I-185, 2-[5-(4-Fluoro-benzylcarbamoyl)-thiophen-2-yl]-5H-pyrrolo[2,3-b]pyrazine-7-carboxylic acid ((S)-1,2,2-trimethyl-propyl)-amide] | 0.32 |
| CC(C)(CNC(=O)c1c[nH]c2ncc(C3CC3)nc12)CS(C)(=O)=O [Example I-98, 2-Cyclopropyl-5H-pyrrolo[2,3-b]pyrazine-7-carboxylic acid (3-methanesulfonyl-2,2-dimethyl-propyl)-amide] | 11.1 |

More lines, in order of falling IC50, values ahead:

| IC50 [nM] | SMILES |
| --- | --- |
| 5360 | CC(C)NC(=O)c1c[nH]c2ncc(Oc3ccccc3Cc3ccccc3)nc12 [Example I-237, 2-(2-Benzyl-phenoxy)-5H-pyrrolo[2,3-b]pyrazine-7-carboxylic acid isopropylamide] |
| 2350 | CCNC(=O)c1c[nH]c2ncc(Oc3cc(OC)cc(OC)c3)nc12 [Example I-263, 2-(3,5-Dimethoxy-phenoxy)-5H-pyrrolo[2,3-b]pyrazine-7-carboxylic acid ethylamide] |
| 1030 | CCNC(=O)c1c[nH]c2ncc(Oc3cccc(C)c3)nc12 [Example I-248, 2-m-Tolyloxy-5H-pyrrolo[2,3-b]pyrazine-7-carboxylic acid ethylamide] |
| 310 | CC(C)NC(=O)c1c[nH]c2ncc(Oc3cccc(Cl)c3)nc12 [Example I-243, 2-(3-Chloro-phenoxy)-5H-pyrrolo[2,3-b]pyrazine-7-carboxylic acid isopropylamide] |
| 138 | CC(C)NC(=O)c1c[nH]c2ncc(Oc3ccc4c(c3)[C@H](N)CC4)nc12 [Example I-281, 2-((R)-3-Amino-indan-5-yloxy)-5H-pyrrolo[2,3-b]pyrazine-7-carboxylic acid isopropylamide] |
| 63.8 | CC(C)[C@H](C)NC(=O)c1c[nH]c2ncc(Oc3ccccc3)nc12 [Example I-122, 2-Phenoxy-5H-pyrrolo[2,3-b]pyrazine-7-carboxylic acid ((S)-1,2-dimethyl-propyl)-amide] |
| 34.3 | CC(C)(CO)CNC(=O)c1c[nH]c2ncc(N3CCCC3)nc12 [Example I-10, 2-Pyrrolidin-1-yl-5H-pyrrolo[2,3-b]pyrazine-7-carboxylic acid (3-hydroxy-2,2-dimethyl-propyl)-amide] |
| 3.25 | Cc1ccc(F)c(-n2cnc(-c3cnc4[nH]cc(C(=O)N[C@@H](C)C(C)(C)C)c4n3)c2)c1 [Example I-148, 2-[1-(2-Fluoro-5-methyl-phenyl)-1H-imidazol-4-yl]-5H-pyrrolo[2,3-b]pyrazine-7-carboxylic acid ((S)-1,2,2-trimethyl-propyl)-amide] |
| 0.32 | CCN(CC)C(=O)c1ccc(-c2cnc3[nH]cc(C(=O)N[C@@H](C)C(C)(C)C)c3n2)s1 [Example I-160, 2-(5-Diethylcarbamoyl-thiophen-2-yl)-5H-pyrrolo[2,3-b]pyrazine-7-carboxylic acid ((S)-1,2,2-trimethyl-propyl)-amide] |
| 0.32 | C[C@H](NC(=O)c1c[nH]c2ncc(-c3ccc(C(=O)N4CCC(C#N)CC4)s3)nc12)C(C)(C)C [Example I-167, 2-[5-(4-Cyano-piperidine-1-carbonyl)-thiophen-2-yl]-5H-pyrrolo[2,3-b]pyrazine-7-carboxylic acid ((S)-1,2,2-trimethyl-propyl)-amide] |
| 0.32 | CONC(=O)c1ccc(-c2cnc3[nH]cc(C(=O)N[C@@H](C)C(C)(C)C)c3n2)s1 [Example I-197, 2-(5-Methoxy-carbamoyl-thiophen-2-yl)-5H-pyrrolo[2,3-b]pyrazine-7-carboxylic acid ((S)-1,2,2-trimethyl-propyl)-amide] |
| 0.32 | C[C@H](NC(=O)c1c[nH]c2ncc(-c3ccc(C(=O)NCc4cccnc4)s3)nc12)C(C)(C)C [Example I-164, 2-{5-[(Pyridin-3-ylmethyl)-carbamoyl]-thiophen-2-yl}-5H-pyrrolo[2,3-b]pyrazine-7-carboxylic acid ((S)-1,2,2-trimethyl-propyl)-amide] |
